PubChem BioAssay AID1259407 (Chemical Carcinogenesis Research Information System (CCRIS), 2018)
Activity calls are given as the source filed them. No rule for the calls is given here.

Tested on: CCRIS mutagenicity, Ames/micronucleus/aberration tests
Test: CCRIS mutagenicity studies
[1] = Test System: AMES SALMONELLA TYPHIMURIUM, Strain/Indicator: TA98, Metabolic Activation: NONE, Method: STANDARD PLATE
[2] = Test System: AMES SALMONELLA TYPHIMURIUM, Strain/Indicator: TA100, Metabolic Activation: NONE, Method: STANDARD PLATE
[3] = Test System: AMES SALMONELLA TYPHIMURIUM, Strain/Indicator: TA1535, Metabolic Activation: NONE, Method: STANDARD PLATE
[4] = Test System: AMES SALMONELLA TYPHIMURIUM, Strain/Indicator: TA1537, Metabolic Activation: NONE, Method: STANDARD PLATE

CC1=CC(=O)c2c(O)cccc2C1=O
mutagenic call (Test System: AMES SALMONELLA TYPHIMURIUM, Strain/Indicator: TA97, Metabolic Activation: NONE, Method: PREINCUBATION): active; positive
mutagenic call (Test System: AMES SALMONELLA TYPHIMURIUM, Strain/Indicator: TA97, Metabolic Activation: RAT, LIVER, S-9, PHENOBARBITAL AND 5,6-BENZOFLAVONE, Method: PREINCUBATION): active; positive
mutagenic call (Test System: AMES SALMONELLA TYPHIMURIUM, Strain/Indicator: TA98, Metabolic Activation: HAMSTER LIVER S-9, AROCLOR 1254, Method: STANDARD PLATE): inactive; negative
mutagenic call (Test System: AMES SALMONELLA TYPHIMURIUM, Strain/Indicator: TA98, Metabolic Activation: NONE, Method: PREINCUBATION): inactive; negative
mutagenic call [1]: inactive; negative
mutagenic call (Test System: AMES SALMONELLA TYPHIMURIUM, Strain/Indicator: TA98, Metabolic Activation: RAT LIVER S-9, AROCLOR 1254, Method: STANDARD PLATE): inactive; negative
mutagenic call (Test System: AMES SALMONELLA TYPHIMURIUM, Strain/Indicator: TA98, Metabolic Activation: RAT, LIVER, S-9, PHENOBARBITAL AND 5,6-BENZOFLAVONE, Method: PREINCUBATION): inactive; negative
mutagenic call (Test System: AMES SALMONELLA TYPHIMURIUM, Strain/Indicator: TA100, Metabolic Activation: HAMSTER LIVER S-9, AROCLOR 1254, Method: STANDARD PLATE): inactive; negative
mutagenic call (Test System: AMES SALMONELLA TYPHIMURIUM, Strain/Indicator: TA100, Metabolic Activation: NONE, Method: PREINCUBATION): inactive; negative
mutagenic call [2]: inactive; negative
mutagenic call (Test System: AMES SALMONELLA TYPHIMURIUM, Strain/Indicator: TA100, Metabolic Activation: RAT LIVER S-9, AROCLOR 1254, Method: STANDARD PLATE): inactive; negative
mutagenic call (Test System: AMES SALMONELLA TYPHIMURIUM, Strain/Indicator: TA100, Metabolic Activation: RAT, LIVER, S-9, PHENOBARBITAL AND 5,6-BENZOFLAVONE, Method: PREINCUBATION): active; positive
mutagenic call (Test System: AMES SALMONELLA TYPHIMURIUM, Strain/Indicator: TA102, Metabolic Activation: NONE, Method: PREINCUBATION): inactive; negative
mutagenic call (Test System: AMES SALMONELLA TYPHIMURIUM, Strain/Indicator: TA102, Metabolic Activation: NONE, Method: STANDARD PLATE): inactive; negative
mutagenic call (Test System: AMES SALMONELLA TYPHIMURIUM, Strain/Indicator: TA102, Metabolic Activation: RAT, LIVER, S-9, PHENOBARBITAL AND 5,6-BENZOFLAVONE, Method: PREINCUBATION): inactive; negative
mutagenic call (Test System: AMES SALMONELLA TYPHIMURIUM, Strain/Indicator: TA104, Metabolic Activation: NONE, Method: PREINCUBATION): active; positive
mutagenic call (Test System: AMES SALMONELLA TYPHIMURIUM, Strain/Indicator: TA104, Metabolic Activation: RAT, LIVER, S-9, PHENOBARBITAL AND 5,6-BENZOFLAVONE, Method: PREINCUBATION): active; positive
mutagenic call (Test System: AMES SALMONELLA TYPHIMURIUM, Strain/Indicator: TA1535, Metabolic Activation: HAMSTER LIVER S-9, AROCLOR 1254, Method: STANDARD PLATE): inactive; negative
mutagenic call (Test System: AMES SALMONELLA TYPHIMURIUM, Strain/Indicator: TA1535, Metabolic Activation: NONE, Method: PREINCUBATION): inactive; negative
mutagenic call [3]: inactive; negative
mutagenic call (Test System: AMES SALMONELLA TYPHIMURIUM, Strain/Indicator: TA1535, Metabolic Activation: RAT LIVER S-9, AROCLOR 1254, Method: STANDARD PLATE): inactive; negative
mutagenic call (Test System: AMES SALMONELLA TYPHIMURIUM, Strain/Indicator: TA1535, Metabolic Activation: RAT, LIVER, S-9, PHENOBARBITAL AND 5,6-BENZOFLAVONE, Method: PREINCUBATION): inactive; negative
mutagenic call (Test System: AMES SALMONELLA TYPHIMURIUM, Strain/Indicator: TA1537, Metabolic Activation: HAMSTER LIVER S-9, AROCLOR 1254, Method: STANDARD PLATE): inactive; negative
mutagenic call (Test System: AMES SALMONELLA TYPHIMURIUM, Strain/Indicator: TA1537, Metabolic Activation: NONE, Method: PREINCUBATION): inactive; negative
mutagenic call [4]: inactive; negative
mutagenic call (Test System: AMES SALMONELLA TYPHIMURIUM, Strain/Indicator: TA1537, Metabolic Activation: RAT LIVER S-9, AROCLOR 1254, Method: STANDARD PLATE): inactive; negative
mutagenic call (Test System: AMES SALMONELLA TYPHIMURIUM, Strain/Indicator: TA1537, Metabolic Activation: RAT, LIVER, S-9, PHENOBARBITAL AND 5,6-BENZOFLAVONE, Method: PREINCUBATION): active; positive
mutagenic call (Test System: AMES SALMONELLA TYPHIMURIUM, Strain/Indicator: TA1538, Metabolic Activation: NONE, Method: PREINCUBATION): inactive; negative
mutagenic call (Test System: AMES SALMONELLA TYPHIMURIUM, Strain/Indicator: TA1538, Metabolic Activation: RAT, LIVER, S-9, PHENOBARBITAL AND 5,6-BENZOFLAVONE, Method: PREINCUBATION): inactive; negative
mutagenic call (Test System: AMES SALMONELLA TYPHIMURIUM, Strain/Indicator: TA2637, Metabolic Activation: NONE, Method: PREINCUBATION): active; positive
mutagenic call (Test System: AMES SALMONELLA TYPHIMURIUM, Strain/Indicator: TA2637, Metabolic Activation: RAT, LIVER, S-9, PHENOBARBITAL AND 5,6-BENZOFLAVONE, Method: PREINCUBATION): active; positive
mutagenic call (Test System: AMES SALMONELLA TYPHIMURIUM, Strain/Indicator: TA2638, Metabolic Activation: NONE, Method: STANDARD PLATE): inactive; negative
mutagenic call (Test System: Ames Salmonella typhimurium, Strain/Indicator: TA102, Metabolic Activation: None, Method: Preincubation): inactive; negative
mutagenic call (Test System: Ames Salmonella typhimurium, Strain/Indicator: TA102, Metabolic Activation: Rat, Liver, S-9, Aroclor 1254 in 0.154 M KCl, Method: Preincubation): inactive; negative
mutagenic call (Test System: E. COLI, Strain/Indicator: WP2 (PKM101), Metabolic Activation: NONE, Method: STANDARD PLATE): inactive; negative
mutagenic call (Test System: E. COLI, Strain/Indicator: WP2 UVRA (PKM101), Metabolic Activation: NONE, Method: STANDARD PLATE): inactive; negative
mutagenic call (Test System: MOUSE LYMPHOMA, Strain/Indicator: L5178Y (TK+/TK-), Metabolic Activation: NONE, Method: SUSPENSION/PLATE): inactive; positive. reevaluation of results: negative
mutagenic call (Test System: MOUSE LYMPHOMA, Strain/Indicator: L5178Y (TK+/TK-), Metabolic Activation: RAT, LIVER, S-9, AROCLOR 1254, Method: SUSPENSION/PLATE): active; positive. reevaluation of results: equivocal

CSc1nc2cc(Oc3cccc(Cl)c3Cl)c(Cl)cc2[nH]1
mutagenic call (End Point: IN VITRO CHROMOSOMAL ABERRATIONS, Test System: RIVER BUFFALO LYMPHOCYTES, Metabolic Activation: NONE): active; positive (structural and ploidy changes)
mutagenic call (End Point: IN VITRO MICRONUCLEUS, Test System: RIVER BUFFALO LYMPHOCYTES, Metabolic Activation: NONE): active; positive

CCC(CCOCn1cc[n+](C)c1/C=N/O)[N+](=O)[O-] (centres undefined)
mutagenic call (Test System: AMES SALMONELLA TYPHIMURIUM, Strain/Indicator: TA97, Metabolic Activation: NONE, Method: STANDARD PLATE): inactive; negative
mutagenic call (Test System: AMES SALMONELLA TYPHIMURIUM, Strain/Indicator: TA97, Metabolic Activation: S-9, Method: STANDARD PLATE): inactive; negative
mutagenic call [1]: inactive; negative
mutagenic call (Test System: AMES SALMONELLA TYPHIMURIUM, Strain/Indicator: TA98, Metabolic Activation: S-9, Method: STANDARD PLATE): inactive; negative
mutagenic call [2]: inactive; negative
mutagenic call (Test System: AMES SALMONELLA TYPHIMURIUM, Strain/Indicator: TA100, Metabolic Activation: S-9, Method: STANDARD PLATE): inactive; negative
mutagenic call (Test System: AMES SALMONELLA TYPHIMURIUM, Strain/Indicator: TA104, Metabolic Activation: NONE, Method: STANDARD PLATE): inactive; negative
mutagenic call (Test System: AMES SALMONELLA TYPHIMURIUM, Strain/Indicator: TA104, Metabolic Activation: S-9, Method: STANDARD PLATE): inactive; negative
mutagenic call [3]: inactive; negative
mutagenic call (Test System: AMES SALMONELLA TYPHIMURIUM, Strain/Indicator: TA1535, Metabolic Activation: S-9, Method: STANDARD PLATE): inactive; negative
mutagenic call [4]: inactive; negative
mutagenic call (Test System: AMES SALMONELLA TYPHIMURIUM, Strain/Indicator: TA1537, Metabolic Activation: S-9, Method: STANDARD PLATE): inactive; negative
mutagenic call (Test System: AMES SALMONELLA TYPHIMURIUM, Strain/Indicator: TA1538, Metabolic Activation: NONE, Method: STANDARD PLATE): inactive; negative
mutagenic call (Test System: AMES SALMONELLA TYPHIMURIUM, Strain/Indicator: TA1538, Metabolic Activation: S-9, Method: STANDARD PLATE): inactive; negative
